This note sets out measurements from patent US20030203959A1, “Novel modulators of potassium channels” (4SC AG, priority 2002, published 2003).

Assay [1] concerns the target BK currents, cloned α-hSlo and β-bSlo in CHO cells (Homo sapiens, UniProt Q12791). Nature of the assay: Electrophysiological studies (whole-cell patch-clamp, BK currents). The settings on record: ratio of current increase after application of compound (20 μM) relative to control current before application, steady-state. Type of assay: cell-based. As for the experimental part:
CHO cells permanently transfected with cloned α-hSlo and β-bSlo were maintained as described above and used for electrophysiologial characterisation. The whole-cell configuration of the patch-clamp technique was used to determine the effect of modulators on BK currents in these cells. The cell line expressing functional BK currents (Zhou et al., Pflügers Arch 436, p.725 (1998)) were plated onto glass cover slips with a density of 1-5×10^4 cells/cover slip, incubated (37° C., 5% CO2) and used for patch-clamp experiments within 24-48 h. Cells were bathed in mammalian ringer solutions containing (in mM): 160 NaCl, 4.5 KCl, 2CaCl2, 1 MgCl2, 10 HEPES, adjusted to pH 7.4, 290-310 mOsim. The internal pipette solution contained (in mM): 160 KCl, 2CaCl2, 1 MgCl2, 10 HEPES, EGTA was added to reach a free [Ca^2+]internal=1×10 ^−6M, adjusted to pH 7.2, 290-310 mOsm.
Borosilicate pipettes with a resistance of 2-3 MΩ were filled with the internal solution and mounted on an appropriate holder. Prior to measurements a recording chamber was mounted onto the cell-plated cover slips and the cells were perfused with a simple syringe driven perfusion system. Compounds were added in the final concentration ([…]) to the bath solution using the same system. An EPC-9 patch-clamp amplifier with Pulse and PulseFit software (HEKA) was used to record and analyze currents.
After addition of the compounds to the bath solution their modulating effect was determined by the increase or decrease of specific BK currents after reaching steady-state relative to the BK current before application of drugs (see Table II).

Assay [2] deals with BK channels, cloned hSlo (α-hSlo and β-bSlo) in CHO cells (Homo sapiens, UniProt Q12791). Description: Em-Assay (voltage sensitive dye DiBAC(4)3 fluorescence, membrane potential). The format is cell-based. The settings on record: ratio of the compound effect (50 μM) compared to the maximal effect of NS004 (25 or 50 μM); hSlo transfected CHO cells. From the text: The large conductance, voltage dependent and Ca^2+-activated potassium channel BK is a potassium selective ion channel and belongs to the subfamily of KCa channels. Four BK alpha-subunits form a functional channel that can be regulated by intracellular Ca^2+ concentration, membrane voltage, and other mechanisms like phosphorylation states or beta subunits. To test the biological activity of the compounds, we applied two different techniques, a fluorescence based assay using a voltage sensitive dye (Em-Assay) as well as exploiting electrophysiological methods.
Sequence of BK channels, cloned hSlo (α-hSlo and β-bSlo) in CHO cells (Q12791 whole entry): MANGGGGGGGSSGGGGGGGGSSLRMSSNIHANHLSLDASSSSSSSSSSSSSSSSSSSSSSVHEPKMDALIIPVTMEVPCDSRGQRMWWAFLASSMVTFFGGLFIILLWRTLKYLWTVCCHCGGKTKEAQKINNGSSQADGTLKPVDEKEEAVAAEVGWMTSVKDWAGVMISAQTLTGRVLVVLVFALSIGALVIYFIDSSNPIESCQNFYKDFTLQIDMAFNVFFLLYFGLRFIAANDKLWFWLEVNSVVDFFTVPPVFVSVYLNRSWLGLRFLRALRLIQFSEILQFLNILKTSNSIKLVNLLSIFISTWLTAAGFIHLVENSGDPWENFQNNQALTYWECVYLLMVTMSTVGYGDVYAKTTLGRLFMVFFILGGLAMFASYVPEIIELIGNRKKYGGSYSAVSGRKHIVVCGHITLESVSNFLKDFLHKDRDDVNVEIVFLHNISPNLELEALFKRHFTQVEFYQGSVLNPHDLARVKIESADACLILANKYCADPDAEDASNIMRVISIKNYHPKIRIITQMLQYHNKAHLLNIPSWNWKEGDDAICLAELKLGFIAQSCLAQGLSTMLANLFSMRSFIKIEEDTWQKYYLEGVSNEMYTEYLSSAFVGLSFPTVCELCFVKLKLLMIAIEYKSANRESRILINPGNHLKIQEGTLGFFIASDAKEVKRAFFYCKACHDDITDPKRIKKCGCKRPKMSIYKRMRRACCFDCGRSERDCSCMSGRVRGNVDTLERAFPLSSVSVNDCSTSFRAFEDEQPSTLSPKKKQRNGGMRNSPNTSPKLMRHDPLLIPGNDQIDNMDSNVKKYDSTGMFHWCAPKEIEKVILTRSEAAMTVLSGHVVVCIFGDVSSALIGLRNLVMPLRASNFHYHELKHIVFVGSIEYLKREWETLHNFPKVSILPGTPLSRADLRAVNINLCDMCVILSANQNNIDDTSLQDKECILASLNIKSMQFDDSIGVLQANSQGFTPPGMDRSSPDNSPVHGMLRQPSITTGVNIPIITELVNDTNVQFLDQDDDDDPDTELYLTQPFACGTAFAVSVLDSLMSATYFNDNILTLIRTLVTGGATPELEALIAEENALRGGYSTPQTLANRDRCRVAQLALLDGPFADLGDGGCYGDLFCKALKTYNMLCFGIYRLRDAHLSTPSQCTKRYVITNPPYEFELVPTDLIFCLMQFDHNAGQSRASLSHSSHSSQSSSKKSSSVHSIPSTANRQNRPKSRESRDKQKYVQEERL
Sequence of BK channels, cloned hSlo (α-hSlo and β-bSlo) in CHO cells (Q28067 whole entry partner): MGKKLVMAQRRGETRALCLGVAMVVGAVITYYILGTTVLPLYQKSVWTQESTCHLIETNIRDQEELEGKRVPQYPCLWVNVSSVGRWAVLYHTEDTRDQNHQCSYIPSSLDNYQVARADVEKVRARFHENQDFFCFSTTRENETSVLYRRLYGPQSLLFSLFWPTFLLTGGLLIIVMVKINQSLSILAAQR
CHO cells permanently transfected with cloned hSlo (α-hSlo and β-bSlo), yielding typical BK potassium currents (Zhou et al., Pflügers Arch., 436: 725-734 (1998), were used for the evaluation of compound activity. Activation or inhibition of BK channels in these cells leads to a change of the electrochemical gradient causing a hyperpolarized or depolarised membrane potential, respectively.
To determine changes in the membrane potential of the cells we used the voltage sensitive dye DiBAC(4)3 (Molecular Probes) in a kinetic assay system using a fluorescent plate reader (Manning and Sontheimer, J. Neurosci. Meth., 91: 73-81 (1999). The anionic bis-oxonol DiBAC(4)3 is a voltage sensitive dye which partitions from the extracellular environment into the cell where it reversibly binds to intracellular proteins, a kinetic process depending on the membrane potential of the cell. At depolarised potentials (i.e. at a reduced K^+ efflux due to blocked K^+ channels) the dye accumulates in the cell leading to an increased fluorescence intensity, due to its increased fluorescence if bound to cellular proteins. At hyperpolarized potentials (i.e. at an increased K^+ efflux due to the opening of K^+ channels), the dye partitions out of the cell causing a decreased fluorescence intensity.
hSlo transfected CHO cells where maintained in DMEM supplemented with 10% FCS, 250 μg/ml Geneticin, 100 μg/ml Hygromycin, 1×HT-Supplement, and 1×Non-essential Amino Acids and cultured in a humidified CO2 incubator. After trypsination, cells where plated with a density of 5×10^4 cells per well on a clear 96-well plate and incubated for 24 h. Cells where washed once with PBS, once with PBS containing 20 mM HEPES (adjusted to pH 7.4 with NaOH) and 2 μM DiBAC(4)3 (DPBS-DiMAC solution). 180 μl of the dPBS-DiBAC solution was then added to the cells and the plate incubated for 30-60 min at 37° C. During this time the dye could partition into the cells and reach a certain steady-state distribution, depending on the resting membrane potential. Test and reference compounds were stored as DMSO stock solutions and diluted in dPBS-DiBAC solution to the desired concentration.
Fluorescence intensity (Ex.: 485 nm/Em: 520 nm) of each well was detected in the plate reader (Fluostar, BMG) every 60 seconds. After recording the baseline fluorescence for 7 minutes, 20 μl test and reference compounds were added and the fluorescence intensity was detected for additional 15 minutes. Background was subtracted, data values were normalized and expressed as a change in fluorescence intensity against time. The change in fluorescence intensity caused by the test compounds was evaluated compared to the effect of the reference compound NS004, and the ratio was determined (see Table I).

Structures are written as SMILES.

Sequence of BK currents, cloned α-hSlo and β-bSlo in CHO cells (Q12791 whole entry): as the sequence (Q12791 whole entry) above
Sequence of BK currents, cloned α-hSlo and β-bSlo in CHO cells (Q28067 whole entry partner): as the sequence (Q28067 whole entry partner) above

`Clc1ccc(-c2cccc3[nH]ccc23)s1` [Compound 22]: in assay [1], the “Effect (ratio of current increase)” value is “++ (>1,1-1.2=++)”. Also, the Em effect entry in assay [2] is given as “+ (0-1=+)”. The like results for `FC(F)(F)Oc1ccc(-c2ccc3[nH]ccc3c2)cc1` [Compound 1] were, in that order, “++ (>1,1-1.2=++)” and “++ (>1=++)”. The like results for `Fc1ccc(-c2ccc3[nH]ccc3c2)c(F)c1` [Compound 3] were, in that order, “+++ (>1.2=+++)” and “++ (>1=++)”. On to `FC(F)(F)c1ccc(-c2ccc3[nH]ccc3c2)cc1` [Compound 4], for which the “Effect (ratio of current increase)” value in assay [1] is given as “++ (>1,1-1.2=++)”. In addition, the Em effect result in assay [2] was “++ (>1=++)”.

Take `COc1ccccc1-c1ccc2[nH]ccc2c1` [Compound 5]: the “Effect (ratio of current increase)” value in assay [1] is “++ (>1,1-1.2=++)”. Besides, in assay [2], the Em effect entry is on record as “++ (>1=++)”. For `CN(C)c1ccc(-c2ccc3[nH]ccc3c2)cc1` [Compound 2], in that order: “+ (1-1.1=+)” and “+ (0-1=+)”. As for `Clc1ccccc1-c1ccc2[nH]ccc2c1` [Compound 30], the “Effect (ratio of current increase)” value in assay [1] is reported as “+ (1-1.1=+)”. Also, the Em effect entry in assay [2] is listed as “++ (>1=++)”. For the compound `CC(C)(C)c1ccc(-c2ccc3cc[nH]c3c2)cc1` [Compound 62], the Em effect result in assay [2] is “+ (0-1=+)”. On the same count and under the same terms, the entry for `COc1ccc(-c2ccc3[nH]ccc3c2)c(OC)c1` [Compound 48] is “++ (>1=++)”. Same read-out and setting: the entry for `COc1ccccc1-c1cccc2cc[nH]c12` [Compound 7] is “+ (0-1=+)”; for `c1cc(-c2ccsc2)c2cc[nH]c2c1` [Compound 23] it is “+ (0-1=+)”. Take `c1ccc(COc2ccc(-c3cccc4[nH]ccc34)cc2)cc1` [Compound 36]: the Em effect result in assay [2] was “+ (0-1=+)”. The same measure, in the same setting: the entry for `c1ccc(-c2ccc3[nH]ccc3c2)cc1` [Compound 59] is “+ (0-1=+)”; for `CN(C)c1ccc(-c2ccc3cc[nH]c3c2)cc1` [Compound 17] it is “++ (>1=++)”. The same measure, in the same setting: for `c1ccc(-c2cccc(-c3ccc4cc[nH]c4c3)c2)cc1` [Compound 60] the value was “+ (0-1=+)”. On the same count and under the same terms, for `CS(=O)(=O)c1ccc(-c2ccc3[nH]ccc3c2)cc1` [Compound 29] the value was “+ (0-1=+)”. With `COc1ccc(-c2ccc3cc[nH]c3c2)cn1` [Compound 35], the Em effect result in assay [2] is “+ (0-1=+)”.

With `c1cc2cc(-c3ccc4[nH]ccc4c3)ccc2[nH]1` [Compound 43], in assay [2], the Em effect entry was “+ (0-1=+)”. On the same count and under the same terms, the entry for `CC(C)(C)c1ccc(-c2ccc3[nH]ccc3c2)cc1` [Compound 32] is “+ (0-1=+)”; for `Clc1ccc(-c2ccc3cc[nH]c3c2)cc1` [Compound 58] it is “+ (0-1=+)”. Same read-out and setting: the entry for `COc1ccccc1-c1cccc2[nH]ccc12` [Compound 24] is “+ (0-1=+)”.
